Assay results taken from patent publication US20040171073A1, “Compounds for modulation of cholesterol transport” (Massachusetts Institute of Technology, priority 2002, published 2004).

Assays:
[1] = target: T1, murine SR-BI (Mus musculus, UniProt Q61009); assay: Uptake of DiI from DiI-HDL by ldlA[mSR-BI] cells (high throughput screen and concentration dependence); assay type: cell-based; conditions: for EC50: inhibition, mean ± SD, n=3
T1 construct: expressed in transfected cells; host or cells: ldlA-7 (LDL receptor deficient Chinese hamster ovary cells)
T1 sequence (Q61009 1-509): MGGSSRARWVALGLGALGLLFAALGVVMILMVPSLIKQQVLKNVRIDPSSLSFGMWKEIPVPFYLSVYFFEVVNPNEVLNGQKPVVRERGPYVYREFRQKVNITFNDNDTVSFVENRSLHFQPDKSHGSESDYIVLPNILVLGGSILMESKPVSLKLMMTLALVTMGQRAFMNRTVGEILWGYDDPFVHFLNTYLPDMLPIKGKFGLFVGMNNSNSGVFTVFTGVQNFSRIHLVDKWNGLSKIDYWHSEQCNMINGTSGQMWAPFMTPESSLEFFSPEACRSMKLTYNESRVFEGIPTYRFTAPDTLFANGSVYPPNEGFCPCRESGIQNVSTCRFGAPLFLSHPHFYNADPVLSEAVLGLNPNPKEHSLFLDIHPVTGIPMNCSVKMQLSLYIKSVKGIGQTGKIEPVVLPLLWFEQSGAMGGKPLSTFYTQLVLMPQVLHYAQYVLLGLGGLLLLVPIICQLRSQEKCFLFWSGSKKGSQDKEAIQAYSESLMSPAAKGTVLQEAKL

[2] = target: T1, murine SR-BI; assay: Uptake of [3H]cholesteryl ether from [3H]CE-HDL by ldlA[mSR-BI] cells; assay type: cell-based; conditions: for EC50: inhibition, mean ± SD, n=6 (n=5 where footnoted), read-out: (A) EC50 [^3H]CEt HDL uptake
Description: (§1) Cells were pre-incubated with BLTs for 1 hr (or 2.5 hrs for transferrin, EGF and cholera toxin uptake experiments) and all the experiments were performed at 37° C. Detailed characterization of the BLTs and their effects was performed with compounds whose identities and purities were confirmed by LC-MS.
(§2) Assays for the uptake of lipids from DiI-HDL and [^3]CE-HDL, efflux of [^3H]cholesterol from labeled cells, and ^125I-HDL binding were performed as described by Acton et al. Science (1996) January 26;271(5248):518-20; Gu, et al. J Biol. Chem. (2000) September 29;275(39):29993-30001; and Ji, et al., J. Biol. Chem. (1997) 272, 20982-5. In some experiments, values were normalized so that the 100% of control represents activity in the absence of compounds and 0% represents activity determined in the presence of a 40-fold excess of unlabeled HDL or, for Y1-BS1 cells, in the presence of a 1:500 dilution of the KKB-1 blocking antibody (Gu, et al., 2000, generous gift from Karen Kozarsky). The amounts of cell-associated [^3H]cholesteryl ether are expressed as the equivalent amount of [^3H]CE-HDL protein (ng) to permit direct comparison of the relative amounts of ^125I-HDL binding and [^3H]CE uptake.

[3] = target: T2, SR-BI (Mus musculus, UniProt Q61009); assay: Uptake of [3H]CE from [3H]CE-HDL by Y1-BS1 adrenocortical cells; assay type: cell-based, murine; conditions: inhibition, n=2, read-out: (A) EC50 [^3H]CEt HDL uptake (Y1-BS1 cells)
T2 construct: endogenous in cells; host or cells: Y1-BS1 murine adrenocortical cells (ACTH induced)
T2 sequence (Q61009 1-509): T1 sequence (Q61009 1-509)
Excerpt: Biol. Chem. 273, 26338-48; Gu, et al. (2000) J. Biol. Chem. 275, 29993-30001; Acton, et al. (1994) J. Biol. Chem. 269, 21003-9; Pitas, et al. (1981) Arteriosclerosis 1, 177-85). LDL receptor deficient Chinese hamster ovary cells that express low levels of endogenous SR-BI, ldlA-7 (Kingsley, et al. (1984) Proc. Nat. Acad. Sci. USA 81, 5454-8), ldlA-7 cells stably transfected to express high levels of murine SR-BI (ldlA[mSR-BI])(Acton, et al., 1996), Y1-BS1 murine adrenocortical cells that express high levels of SR-BI after induction with ACTH (Rigotti, et al. (1996) J. Biol. Chem. 271, 33545-9), monkey kidney BS-C1 cells (Kapoor, et al. (2000) Journal of Cell Biology 150, 975-88) and HeLa cells (Temel, et al. (2002) J Biol Chem 8, 8) were maintained as previously described.
as §1, §2

[4] = target: T1, murine SR-BI; assay: Efflux of [3H]cholesterol from ldlA[mSR-BI] cells to HDL; assay type: cell-based; conditions: for EC50: inhibition of efflux to HDL, mean ± SD, n=3
Description: as §1, §2
In addition to mediating selective lipid uptake from HDL, SR-BI can facilitate the efflux of unesterified cholesterol from cells to HDL particles (Jian, et al. (1998) J Biol Chem 273, 5599-606. Ji, et al. (1997) J. Biol. Chem. 272, 20982-5). To determine if the BLTs could inhibit this SR-BI-mediated lipid transport activity, cells were labeled with [^3H]cholesterol and its efflux to unlabeled HDL measured in the presence or absence of the BLTs. (FIG. 2C, table II). Cells were incubated for 3 hrs in the absence (top panels) or presence (bottom panels) of 50 micromolar BLT-1 (MIT 9952-53) and epifluorescence light microscopy was used to monitor the following cellular activities: clathrin-dependent endocytosis of fluorescently labeled transferrin (A,B; HeLa cells) and EGF (C,D; HeLa cells); clathrin-independent endocytosis of fluorescently labeled cholera toxin (E, F; BSC-1 cells), and transport of the temperature sensitive fluorescent membrane protein VSVG^ts045-EGFP from the ER to the cell surface (G,H; BSC-1 cells). In addition, the intracellular distributions of the actin cytoskeleton (visualized with rhodamine labeled phalloidin, I,J; ldlA-[mSRBI] cells) and the tubulin network (visualized with fluorescently labeled antibodies specific to y-tubulin, K,L; BSC-1 cells) were determined. BLT-1 (MIT 9952-53) and the other BLTs (not shown) had no effects on any of these cellular properties or activities.

[5] = target: T1, murine SR-BI; assay: 125I-HDL binding to ldlA[mSR-BI] cells; conditions: for (B) Binding Parameters Bmax: 125I-HDL binding sites in presence of BLT at its ICCE95, no BLT control 100.0 ± 18.4; for Effect on HDL binding to SR-BI / EC50: ldlA[mSR-BI] cells; for EC50: enhancement of HDL binding, 10 μg protein/ml HDL, mean ± SD, n=3, read-out: (A) EC50 ^1nI-HDL binding
Description: as §1, §2
It was initially expected that the BLTs would function by inhibiting HDL binding to SR-BI. However, when cells were incubated with a sub-saturating concentration of either [^3H]CE-HDL or ^125I-labeled HDL (^125I-HDL) (10 μg protein/ml) and increasing amounts of compound (FIG. 5), the decreases in [^3H]CE uptake (solid lines, no symbols, data from FIG. 2B) and [3H]cholesterol efflux (dashed lines, data from FIG. 2C) were accompanied by corresponding increases in ^125I-HDL binding (solid lines, square symbols). The concentration dependence of ^125I-HDL binding was determined in the presence or absence of BLTs at their ICCE95 concentrations (FIG. 6 and Table II).

[6] = target: T1, murine SR-BI; assay: Rate of 125I-HDL dissociation from cells; conditions: dissociation of 125I-HDL from ldlA[mSR-BI] cells in presence of BLT; no BLT control 0.11; n=2; read-out: (B) Binding Parameters Koff (converted)
Description: The rates of HDL dissociation from cells were determined by incubation of the cells with ^125I-HDL (10 μg protein/ml, 2 hrs, 37° C.) with and without BLTs. The medium was then either replaced with the same medium in which the ^125I-HDL was substituted by a 40-fold excess of unlabeled HDL or a 40-fold excess of unlabeled HDL was added to the labeled incubation medium. The amounts of cell-associated ^125I-HDL were then determined as a function of time. The two methods gave similar results.

[7] = DiI uptake from DiI-HDL, compounds at nominal 10 micromolar, ldlA[mSR-BI] cells

## C/C(=N\NC(=O)c1ccccc1I)c1ccc(N)cc1 [MIT 9952-6]
[1]
  ENDOHDL Test 1: 0.52
  ENDOHDL Test 2: 0.54
[1]; ldlA[mSR-BI] cells
  EC50: 7.1 ± 3.7 µM
[2]
  ICCE95 concentration (inhibits [3H]CE uptake by 95%): 50 µM
  EC50: 13.8 µM
[3]
  EC50: 8 µM
[4]
  ICFC50 for efflux compared with that for uptake: higher
  EC50: 75.3 ± 40.1 µM
[5]
  (B) Binding Parameters Bmax: 92.1 ± 36.8%
  Effect on HDL binding to SR-BI: enhanced
  EC50: 18 ± 3.7 µM
[6]
  koff: 0.00132 s⁻¹

## c1ccc(-c2noc(-c3ccccc3)c3cccc2-3)cc1 [MIT 9952-19]
[1]; ldlA[mSR-BI] cells
  EC50: 0.51 ± 0.15 µM
[2]
  ICCE95 concentration (inhibits [3H]CE uptake by 95%): 50 µM
  EC50: 2.3 ± 1.5 µM
[3]
  EC50: 1.7 µM
[4]
  ICFC50 for efflux compared with that for uptake: higher
  EC50: 17.2 ± 4 µM
[5]
  (B) Binding Parameters Bmax: 85.8 ± 15.8%
  Effect on HDL binding to SR-BI: enhanced
  EC50: 46.5 ± 49.3 µM
[6]
  koff: 0.00133 s⁻¹

## COc1ccccc1NC(=O)Nc1ccc2ccccc2c1 [MIT 9952-29]
[1]; ldlA[mSR-BI] cells
  EC50: 2 ± 1 µM
[2]
  ICCE95 concentration (inhibits [3H]CE uptake by 95%): 50 µM
  EC50: 3.9 µM
[3]
  EC50: 4.4 µM
[4]
  ICFC50 for efflux compared with that for uptake: higher
  EC50: 54.9 ± 35.2 µM
[5]
  (B) Binding Parameters Bmax: 79.9 ± 15.9%
  Effect on HDL binding to SR-BI: enhanced
  EC50: 24.9 ± 14.8 µM
[6]
  koff: 0.00137 s⁻¹

## CCCCOCCC1CCC/C1=N\NC(N)=S (centres unmarked) [MIT 9952-61]
[1]
  ENDOHDL Test 1: 0.7
  ENDOHDL Test 2: 0.57
[1]; ldlA[mSR-BI] cells
  Inhibition of SR-BI-mediated lipid transport / DiI uptake, concentration range in words: inhibited in the nanomolar range
  EC50: 0.35 ± 0.18 µM
[2]
  ICCE95 concentration (inhibits [3H]CE uptake by 95%): 1 µM
  EC50: 0.24 ± 0.1 µM
[3]
  EC50: 0.41 µM
[4]
  EC50: 0.47 ± 0.23 µM
[5]
  (B) Binding Parameters Bmax: 93.0 ± 20.5%
  Effect on HDL binding to SR-BI: enhanced
  EC50: 0.25 ± 0.13 µM
[6]
  koff: 0.00103 s⁻¹

## O=C(NNC(=O)c1cccc2ccccc12)c1ccc(NC(=O)c2cccc3ccccc23)cc1 [MIT 9952-329]
[1]; [7]
  ENDOHDL Test 1: 0.57
  ENDOHDL Test 2: 0.53

## CCn1c2ccccc2c2cc(/C=N/NC(N)=S)ccc21 [MIT 9952-330]
[1]; [7]
  ENDOHDL Test 1: 0.59
  ENDOHDL Test 2: 0.56

## CC(C)(C)c1ccc(C(=O)Nc2cccc(NC(=O)c3cccc([N+](=O)[O-])c3)c2)cc1 [MIT 9952-331]
[1]; [7]
  ENDOHDL Test 1: 0.63
  ENDOHDL Test 2: 0.35

## Cc1ccc(NC(=S)NC(NC(=O)c2ccccc2Cl)C(Cl)(Cl)Cl)cc1 (centres unmarked) [MIT 9952-332]
[1]; [7]
  ENDOHDL Test 1: 0.69
  ENDOHDL Test 2: 0.67

## C/C(CCS(=O)(=O)c1ccc(C)cc1)=N\NC(N)=S [MIT 9952-333]
[1]; [7]
  ENDOHDL Test 1: 0.56
  ENDOHDL Test 2: 0.59

## Nc1ccc(C(=O)Nc2ccc(-c3nc4ccc(NC(=O)c5ccc(N)cc5)c(Cl)c4[nH]3)cc2Cl)cc1 [MIT 9952-334]
[1]; [7]
  ENDOHDL Test 1: 0.57
  ENDOHDL Test 2: 0.55

## COc1ccc2c(c1)c(C(C)=O)c(C)n2-c1ccccc1 [MIT 9952-335]
[1]; [7]
  ENDOHDL Test 1: 0.57
  ENDOHDL Test 2: 0.49

## O=C(NC(NC(=S)Nc1ccc2ccccc2c1)C(Cl)(Cl)Cl)c1cccc([N+](=O)[O-])c1 (centres unmarked) [MIT 9952-336]
[1]; [7]
  ENDOHDL Test 1: 0.54
  ENDOHDL Test 2: 0.58

## O=C(Nc1cccc(NC(=O)c2ccccc2Cl)c1)c1cccc([N+](=O)[O-])c1 [MIT 9952-337]
[1]; [7]
  ENDOHDL Test 1: 0.6
  ENDOHDL Test 2: 0.57

## COc1ccc([N+](=O)[O-])cc1NC(=O)c1ccccc1 [MIT 9952-338]
[1]; [7]
  ENDOHDL Test 1: 0.61
  ENDOHDL Test 2: 0.6

## O=C(Nc1ccc(-c2nc3cc(NC(=O)c4ccccc4[N+](=O)[O-])ccc3o2)cc1)c1ccccc1[N+](=O)[O-] [MIT 9952-339]
[1]; [7]
  ENDOHDL Test 1: 0.58
  ENDOHDL Test 2: 0.54

## Nc1cc2cccnc2c2ncccc12 [MIT 9952-341]
[1]; [7]
  ENDOHDL Test 1: 0.61
  ENDOHDL Test 2: 0.51
